Source: patent publication US8552029B2, “Quinoline derivatives and uses of the same” (National Taipei University of Technology, priority 2011, dated 2013)

Row | SMILES | melting point
1 | Nc1ccc(-n2cc(C(=O)O)c(=O)c3cc(F)c(N/N=C/c4ccccc4)cc32)cc1 [Compound 7, 1-(4-aminophenyl)-7-(2-benzylidenehydrazinyl)-6-fluoro-4-oxo-1,4-dihydroquinoline-3-carboxylic acid] | 314 to 316 °C
2 | COc1ccc(/C=N/Nc2cc3c(cc2F)c(=O)c(C(=O)O)cn3-c2ccc(N)cc2F)cc1 [Compound 10, 1-(4-amino-2-fluorophenyl)-6-fluoro-7-[2-(4-methoxybenzylidene)hydrazinyl]-4-oxo-1,4-dihydroquinoline-3-carboxylic acid] | 321 to 322 °C
3 | Nc1ccc(-n2cc(C(=O)O)c(=O)c3cc(F)c(N/N=C/c4ccncc4)cc32)c(F)c1 [Compound 11, 1-(4-amino-2-fluorophenyl)-6-fluoro-4-oxo-7-[2-(pyridin-4-ylmethylene)hydrazinyl]-1,4-dihydroquinoline-3-carboxylic acid] | 176 to 178 °C

The next lines start with the values.

Row | melting point | SMILES
4 | 308 to 310 °C | Nc1ccc(-n2cc(C(=O)O)c(=O)c3cc(F)c(N/N=C/c4ccc(F)cc4)cc32)cc1 [Compound 8, 1-(4-aminophenyl)-6-fluoro-7-[2-(4-fluorobenzylidene)hydrazinyl]-4-oxo-1,4-dihydroquinoline-3-carboxylic acid]
5 | 307 to 309 °C | COc1ccc(/C=N/Nc2cc3c(cc2F)c(=O)c(C(=O)O)cn3-c2ccc(N)cc2)cc1 [Compound 9, 1-(4-aminophenyl)-6-fluoro-7-(2-(4-methoxybenzylidene)hydrazinyl)-4-oxo-1,4-dihydroquinoline-3-carboxylic acid]
